According to patent publication US12649980B2, “Three-dimensional surface for protein and small molecule microarrays” (The Johns Hopkins University, priority 2019, dated 2026):

Experiments:
GLUT1 [1] = target: T1, GLUT1 (Homo sapiens, UniProt P11166); assay: rapafucin 3D microarray screen with GLUT1-containing cell lysate; format: binding; conditions: signal-to-background ratio, 3D surface, lysate of GLUT1-overexpressing HEK293T; hit if SBR > 3
T1 construct: The full-length human SLC2A1, SLC2A3, and SLC2A4 genes were PCR amplified and inserted into pLenti6M vector 2; expressed in transfected cells
T1 sequence (P11166 1-492): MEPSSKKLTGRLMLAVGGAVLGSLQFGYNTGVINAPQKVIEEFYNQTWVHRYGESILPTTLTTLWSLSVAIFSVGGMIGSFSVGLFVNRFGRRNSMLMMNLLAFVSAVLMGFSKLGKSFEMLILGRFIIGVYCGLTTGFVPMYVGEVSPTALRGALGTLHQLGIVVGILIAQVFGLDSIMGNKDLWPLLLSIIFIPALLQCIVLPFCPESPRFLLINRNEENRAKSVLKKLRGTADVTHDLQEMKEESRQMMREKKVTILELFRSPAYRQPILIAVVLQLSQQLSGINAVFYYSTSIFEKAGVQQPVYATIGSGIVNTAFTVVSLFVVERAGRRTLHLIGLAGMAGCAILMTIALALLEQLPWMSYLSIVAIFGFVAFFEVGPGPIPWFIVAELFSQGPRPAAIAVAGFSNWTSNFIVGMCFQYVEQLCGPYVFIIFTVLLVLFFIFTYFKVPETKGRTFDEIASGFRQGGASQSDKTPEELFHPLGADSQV
From the text: (§1) Once stock solutions of the rapafucin library were arrayed on the 2D or 3D surface and most of solvent carrier was evaporated, the crosslinking reaction was initiated by irradiating the surfaces with 365-nm wavelength UV light. Kawatani and Osada, Medchemcomm 2014, 5, 277-287. […] To screen for GLUT1-interacting rapafucins, GLUT1 was stably overexpressed in HEK293T cells and generated cell lysates containing detergent-solubilized recombinant GLUT1 (FIG. 10). The GLUT1-containing cell lysate was then incubated on both 2D and 3D rapafucin microarrays. After washing the slides to remove unbound proteins, the bound GLUT1 protein was detected with anti-GLUT1 antibodies, followed by visualization with Cy5-labeled secondary antibodies using a microarray scanner. Rapafucins were scored as positive hits when the corresponding SBR was greater than 3. Based on this criterion, a total of 17 rapafucin hits and one positive control BAY-876, a specific GLUT1 inhibitor, Siebeneicher et al., ChemMedChem 2016, 11, 2261-2271, were identified on the 3D rapafucin microarray. In contrast, only one hit (WL13-F11, also among the 17 hits identified from the 3D rapafucin microarray) was identified on the 2D rapafucin microarray (Table 1, FIG. 11).
The amine substrates (Arrayit, SMM) were immerged in a mixture of 2-bromoisobutyryl bromide (BIBB, 0.1 mM, as initiator) and propionyl bromide (10 mM, as horizontal spacer) with triethylamine (15 mM) in DCM for 4 hours. A degassed polymerization reaction mixture, containing copper (II) chloride dihydrate (CuCl2, 4 mmol), 2,2′-bipyridine (2 mmol), 75 mmol monomers mixture of 2-(dimethylamino)ethyl methacrylate (DMAEMA) and poly(ethylene glycol) methacrylate (PEGMA Mn 360) in 500 mL Milli-Q/MeOH, was mixed with freshly made ascorbic acid (4 mmol). The mixture was applied to 50 slides for 6 hours under the argon atmosphere for the surface-initiated polymerization. A gradient ratio of PEGMA and DMAEMA was set, including 10:0, 8:2, 5:5, 2:8 and 0:10 for an optimization purpose. The terminals of the brushes were further functionalized by N,N′-disuccinimidyl carbonate (DSC, 10 mM) and 4-dimethylaminopyridine (DMAP,10 mM) in DMF overnight to form succinimidyl carbonate intermediate, and, successively, diazirine linker 1 (10 mM) and N,Ndiisopropylethylamine (DIPEA, 50 mM) in DMF for 2 hours to couple the photoaffinity linker in dark at room temperature. At the end, the substrates were immerged in a 50 mM ethanolamine in DMF to block the residual carboxylic moiety. The slides were thoroughly washed by DMF, EtOH and DCM and dried in a fuming cupboard and ready for spotting.
10 mM of rapafucins in DMSO from the library were spotted onto the slides with a high-precision microarrayer (Nanoprint, Arrayit, CA) for a desired pattern in dark, which was loaded with 16 100-μm diameter micro-spotting pins. The pin heads were thoroughly washed and sonicated in ethanol and dried for 4 times under a compassed air between each sample loading. After overnight evaporation, the slides were exposed to 365-nm wavelength UV irradiation for 4 J/cm^2 by CL-1000L UV crosslinker (UVP, CA) for rapafucins covalent immobilization. The slides were ultrasonic cleaned successively in DCM, MeOH and Milli-Q water and stored in a −20° C. freezer.
(§2) In the optimization experiments, the slides were incubated with 50 nM purified recombinant FKBP12 for 1 hour, while in the GLUT1 screening, 10 mg/mL of cell lysate containing DDM-solubilized GLUT1 from GLUT1 overexpressed HEK293T was incubated for 1 hour. Successively, primary antibody and CY5 labeled secondary antibody were added for 1 hour. The chips were washed in buffer A for 5 mins 3 times after the sample and antibodies incubation. After centrifugation, the dried chips were scanned by a microarray scanner (Genepix, US) at 635-nm wavelength. The final result was analyzed by GenePix software.

DLD1 WT = assay: [3H]-2DG uptake in DLD1 WT cells; format: cell-based
Description: (§3) The inhibitory activity of compounds on glucose transport was analyzed by measuring the cell uptake of [3H]-2DG as previously described. Ulanovskaya et al., Chem. Biol. 2011, 18, 222-230. Briefly, cells were washed twice and incubated in low-glucose medium for 10 min. Cells were added drugs and incubated for another 10 min before adding [3H]-2DG. After 10 min incubation with [3H]-2DG, cells were washed twice and lysed with 0.2 N NaOH plus 0.2% SDS. The cell lysate was transferred to a new tube containing 1 mL of optiphase supermix. Glucose uptake was quantified with a scintillation counter.

DLD1 GLUT1 KO = assay: [3H]-2DG uptake in DLD1 GLUT1 knockout cells; format: cell-based; conditions: for inhibitory activity in GLUT1 knock out cells: DLD-1 GLUT1 knock out versus wild type
Description: as §3

GLUT1 [2] = target: T1, GLUT1; assay: rapafucin 2D microarray screen with GLUT1-containing cell lysate; format: binding; conditions: signal-to-background ratio, 2D surface, same lysate and conditions
From the text: as §1, §2

A549 cells = assay: [3H]-2DG uptake assay in A549 cells; format: cell-based, human; conditions: 10 min incubation with compound, mean ± s.d., n = 3
Description: To determine which of the 17 rapafucin hits inhibited the transporter activity of GLUT1, an orthogonal glucose uptake assay using 2-deoxy-D-[3H] glucose ([3H]-2DG), a nonhydrolyzable, radioactive glucose analog, was employed. Each hit was separately incubated with A549 cells for 10 min before the amount of [3H]-2DG taken up by the cells was measured using scintillation counting. […] The effect of JW11-D2 on uptake of [3H]-2DG in human red blood cells that exclusively express GLUT1 was then determined. Helgerson and Carruthers, J. Biol. Chem. 1987, 262, 5464-5475. […] To further improve the potency of JW11-D2, a structure-activity relationship (SAR) study was performed by synthesizing 21 new analogs of JW11-D2 using different amino acid building blocks.
as §3

GLUT3 = GLUT3 (Homo sapiens, UniProt P11169); assay: biotin-RgA pull-down assay, GLUT3; conditions: lysate of HEK293T overexpressing GLUT3, Western blot
Description: (§4) It was further determined whether RgA is specific for GLUT1 using a pair of isogenic cell lines.
(§5) GLUT1 or other isoforms overexpression HEK293T cells were washed once in buffer A (10 mM Tris-HCl, 150 mM KCl, 5 mM MgCl2, 1 mM EGTA, pH 7.4). To extract GLUT1 or isoforms protein, cells were mixed in buffer C (10 mM Tris-HCl, 150 mM KCl, 5 mM MgCl2, 1% DDM, 5% glycerol, 1 mM EGTA, protease inhibitor, pH 7.4) and incubated on ice for 1 h with frequent mixing. The supernatant was collected by centrifugation at 17,000 g for 10 min at 4° C., and then diluted four-fold in buffer A plus 5% glycerol to reduce the concentration of DDM. The diluted supernatant was quantified by protein assay kit and pre-incubated with streptavidin agarose beads at 4° C. for 30 min to remove the endogenous streptavidin-binding proteins. The supernatant was collected by centrifugation at 2,000 rpm for 1 min at 4° C., and diluted to 10 mg/mL for pull-down experiment. For a typical biotin pull- down reaction, 300 μL of supernatant was pretreated with competitor or equal volume of DMSO (as noted hereinabove) for 30 min, before the addition of RgA biotin probe or DMSO (as noted hereinabove). After incubation at 4° C. for 1 h with frequent mixing, 30 μL of streptavidin agarose beads in buffer A was added, and incubation was continued for 2 h. […]

GLUT4 = GLUT4 (Homo sapiens, UniProt P14672); assay: biotin-RgA pull-down assay, GLUT4; conditions: lysate of HEK293T overexpressing GLUT4, Western blot
Description: as §4, §5

GLUT1 [3] = target: T1, GLUT1; assay: biotin-RgA pull-down and biotin probe competition binding assay, GLUT1; conditions: lysate of HEK293T overexpressing GLUT1, Western blot
Description: Next, the binding affinity of RgA for GLUT1 was determined using a RgA biotin pull-down assay. A biotin-RgA conjugate was synthesized by tethering the biotin moiety through carbon:carbon double bond in the FKBP-binding domain of RgA (FIG. 13). […] Using the biotin-RgA conjugate, a pulldown experiment with cell lysate containing detergent-solubilized GLUT1 protein prepared from HEK293T cells overexpressing GLUT1 was performed, followed by Western blot analysis with a GLUT1-specific antibody.
The estimation of Kd value for RgA was determined with the biotin probe competition binding assay. […] After western blot, band intensities were quantified by densitometry analysis using Image J software. The assay was repeated three times. GraphPad Prism (v4.03) software was used to determine apparent Kd value for RgA using a nonlinear regression.

[4] = system: glutathione S-transferases; conditions: Yamada and Kaplowitz 1980; cited from earlier work

Chain of GLUT3 (P11169 whole entry): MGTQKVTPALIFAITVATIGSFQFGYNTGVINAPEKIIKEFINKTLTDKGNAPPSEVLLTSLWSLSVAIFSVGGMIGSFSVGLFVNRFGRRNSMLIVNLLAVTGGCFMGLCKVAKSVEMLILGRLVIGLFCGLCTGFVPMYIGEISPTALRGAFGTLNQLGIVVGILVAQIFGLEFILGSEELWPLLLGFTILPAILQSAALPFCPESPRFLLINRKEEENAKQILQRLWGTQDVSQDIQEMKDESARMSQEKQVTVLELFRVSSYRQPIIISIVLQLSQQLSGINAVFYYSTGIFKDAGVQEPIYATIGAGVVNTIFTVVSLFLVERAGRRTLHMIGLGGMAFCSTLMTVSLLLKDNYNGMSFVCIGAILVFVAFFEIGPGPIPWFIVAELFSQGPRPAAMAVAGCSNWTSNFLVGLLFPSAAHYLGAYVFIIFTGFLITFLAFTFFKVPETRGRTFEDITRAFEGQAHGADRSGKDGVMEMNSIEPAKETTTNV
Chain of GLUT4 (P14672 whole entry): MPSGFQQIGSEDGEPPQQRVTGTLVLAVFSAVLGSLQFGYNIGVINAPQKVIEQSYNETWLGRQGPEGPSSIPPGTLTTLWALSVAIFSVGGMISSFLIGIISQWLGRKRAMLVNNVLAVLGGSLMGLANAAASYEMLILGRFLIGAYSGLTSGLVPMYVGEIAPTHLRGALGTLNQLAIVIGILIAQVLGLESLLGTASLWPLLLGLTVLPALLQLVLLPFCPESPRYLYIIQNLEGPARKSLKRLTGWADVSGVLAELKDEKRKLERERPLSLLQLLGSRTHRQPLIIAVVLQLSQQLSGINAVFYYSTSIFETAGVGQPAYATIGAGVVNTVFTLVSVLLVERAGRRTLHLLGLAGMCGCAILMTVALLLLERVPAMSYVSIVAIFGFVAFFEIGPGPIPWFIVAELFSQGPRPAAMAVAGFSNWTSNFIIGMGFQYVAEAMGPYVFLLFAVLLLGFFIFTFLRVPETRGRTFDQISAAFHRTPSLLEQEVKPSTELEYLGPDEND

| Compound | 3D SBR (GLUT1 [1]) | 2D SBR (GLUT1 [2]) | IC50 (A549 cells) [nM] | also measured |
| --- | --- | --- | --- | --- |
| Cc1c(NC(=O)c2cc(C(N)=O)nc3cc(F)ccc23)c(C(F)(F)F)nn1Cc1ccc(C#N)cc1 [BAY-876] | 3.2 ± 0.74 | <3.0 |  | EC50 (DLD1 WT; Homo sapiens, DLD-1, DLD1 wild type): 8 ± 1.1 nM; inhibitory activity in GLUT1 knock out cells (DLD1 GLUT1 KO): lost its inhibitory activity; EC50 (DLD1 GLUT1 KO; Homo sapiens, DLD-1, DLD1 GLUT1 knockout): > 1000 nM |
| C=C1[C@@H](C)[C@H]2[C@H](Cc3ccccc3)NC(=O)[C@]23OC(=O)/C=C/[C@H](O)CCC[C@@H](C)C/C=C/[C@H]3[C@@H]1O [Cytochalasin B, cytochalasin B] |  |  |  | EC50 (DLD1 WT; DLD1 wild type): 545 ± 40.5 nM; EC50 (DLD1 GLUT1 KO; DLD1 GLUT1 knockout): 390 ± 32.7 nM; inhibitory activity in GLUT1 knock out cells (DLD1 GLUT1 KO): maintained its inhibitory activity |
| COc1ccc(CC[C@H]2OC(=O)[C@@H]3CCCCN3C(=O)C(=O)C(C)(C)COC(=O)C=CCCN(C)C(=O)[C@H](Cc3ccccc3)N(C)C(=O)CCNC(=O)CN(C)C(=O)[C@H](Cc3ccc(O)cc3)NC(=O)COc3cccc2c3)cc1OC [WL05-D8] | 6.4 ± 1.8 | <3.0 | > 3000 |  |
| CCCC[C@H]1C(=O)N2CCC[C@@H]2C(=O)N(C)CCC=CC(=O)OCC(C)(C)C(=O)C(=O)N2CCCC[C@H]2C(=O)O[C@H](CCc2ccc(OC)c(OC)c2)c2cccc(c2)OCC(=O)N(C)CC(=O)N[C@H](Cc2ccc(NC(=O)OC(C)(C)C)cc2)C(=O)N1C [WL11-E7] | 4.8 ± 0.5 | <3.0 | > 3000 |  |
| CCCC[C@H]1C(=O)N2CCC[C@@H]2C(=O)N(C)CCC=CC(=O)OCC(C)(C)C(=O)C(=O)N2CCCC[C@H]2C(=O)O[C@H](CCc2ccc(OC)c(OC)c2)c2cncc(c2)OCC(=O)N(C)CC(=O)N[C@@H](Cc2ccccc2)C(=O)N1C [WL11-G9] | 3.9 ± 0.3 | <3.0 | > 3000 |  |
| COc1ccc(CC[C@H]2OC(=O)[C@@H]3CCCCN3C(=O)C(=O)C(C)(C)COC(=O)C=CCCN(C)C(=O)[C@H]3CCCN3C(=O)[C@H](C(C)C)N(C)C(=O)[C@H](Cc3ccc([N+](=O)[O-])cc3)NC(=O)CN(C)C(=O)COc3cccc2c3)cc1OC [WL12-G5] | 8.8 ± 2.0 | <3.0 | > 3000 |  |
| CCC(C)C1C(=O)NCC(=O)N(C)CCC(SCCCSCC(=O)NCCOCCOCCNC(=O)CCCCC2SCC3NC(=O)NC32)CC(=O)OCC(C)(C)C(=O)C(=O)N2CCCCC2C(=O)OC(CCc2ccc(OC)c(OC)c2)c2cccc(c2)NC(=O)CCC(=O)N(C)C(CC(C)C)C(=O)NC(Cc2ccccc2)C(=O)N1C (stereo not shown) [biotin-RgA] |  |  | 211 | pulldown of GLUT3 (GLUT3): able to pull down both GLUT3 and GLUT4; pulldown of GLUT4 (GLUT4): able to pull down both GLUT3 and GLUT4; pulldown of GLUT1 (GLUT1 [3]): capable of pulling down GLUT1 |
| C=C(CC)C(=O)c1ccc(OCC(=O)O)c(Cl)c1Cl [ethacrynic acid] |  |  |  | proportion of bound ethacrynic acid that was bound covalently [4]: 13.5% |
